Assay results published in patent US20090247477A1, “Methods of suppressing uv light-induced skin carcinogenesis” (priority 2005, published 2009).

Columns and labels:
[1] = system: UVB radiation-induced skin tumors; assay: UVB-induced skin carcinogenesis in high-risk mice, dietary treatment; assay type: in vivo, mouse; details: vs control
Experimental: Seeds of broccoli (Brassica oleracea italica, cv. DeCicco) were used to grow sprouts as described in Example 1. Growth was arrested after 3 days by plunging sprouts into boiling water and allowed to boil for ˜30 min. This treatment inactivated the endogenous sprout myrosinase and extracted the glucosinolates. […] The powder was mixed with the mouse diet (powdered AIN 76A) to give the equivalent of 10 μmol (low dose) or 50 μmol (high dose) of glucoraphanin per 3 grams of diet.
Body weights and formation of tumors larger than 1 mm in diameter were determined weekly.
UVB radiation was provided by a bank of UV lamps (FS72T12-UVB-HO, National Biological Corporation, Twinsburg, Ohio) emitting UVB (280-320 nm, 65% of total energy) and UVA (320-375 nm, 35% of total energy). The radiant dose of UVB was quantified with a UVB Daavlin Flex Control Integrating Dosimeter and further calibrated with an IL-1400 radiometer (International Light, Newburyport, Mass.).
The animals were irradiated for 20 weeks on Tuesdays and Fridays with a radiant exposure of 30 mJ/cm^2/session. […]
Tumor volumes were determined by measuring the height, length, and width of each mass that was larger than 1 mm in diameter. The average of the three measurements was used as the diameter and the volume was calculated (v=4πr^3/3). All mice were euthanized on the same day and the size and multiplicity of tumors was determined. […]

PE murine keratinocytes = details: 5 μM for 24 h, UVA 10 J/cm^2, PE cells
Experimental: Reactive oxygen intermediates generated by the UV radiation were quantified by the fluorescent probe 2′,7′-dichlorodinitrofluorescein and fluorescence intensity was measured (expressed as a ratio of exposed to non-exposed cells).
PE cells (50,000 per well) were seeded into 24-well plates and grown for 48 h. […] On the day of the experiments, after removing the medium, the cells were incubated with 100 μM 2′,7′-dichlorodinitrofluorescein diacetate in 500 μl of fresh medium (Molecular Probes, Eugene, Oreg.) for 30 min. The medium containing the fluorescent probe was then removed, the cells were washed with DPBS, and exposed to UVA radiation (10 J/cm^2) Control cells were kept in the dark. Cells were detached with trypsin, suspended in 2.0 ml of DPBS, and the intensity of fluorescence was determined in cell suspensions at 520 nm with an excitation of 485 nm in 2-ml cuvettes in a Perkin-Elmer LS50 spectrofluorimeter.

glutathione = details: topical extract containing 1 μmol sulforaphane, 24 h, vs vehicle
From the text: Female SKH-1 hairless mice (4 weeks old) were obtained from Charles River Breeding Laboratories (Wilmington, Mass.) and were acclimatized in our animal facility for 2 weeks before the start of the experiment. The animals were kept on a 12-h light/12-h dark cycle, 35% humidity, and given free access to water and pelleted AIN 76A diet (Harlan TekLad, free of inducers). All animal experiments were in compliance with the National Institutes of Health Guidelines and were approved by the Johns Hopkins University Animal Care and Use Committee.
The animals were euthanized 24 h later and their dorsal skins were dissected using a rectangular template (2.5×5 cm) and frozen in liquid N2. […] Centrifugation at 14,000 g for 20 min at 4° C. yielded clear supernatant fractions, aliquots of which were used for determination of protein content, enzyme activity, and total glutathione levels as described below for the cell culture experiments.

Row | Compound | inhibition in total tumor volume per mouse ([1]; high dose) [%] | inhibition in total tumor volume per mouse ([1]; low dose) [%] | reduction in reactive oxygen intermediates generated by UV radiation (PE murine keratinocytes) [%] | elevation of total glutathione levels in skin (glutathione) [%]
1 | C[S+]([O-])CCCC/C(=N\OS(=O)(=O)O)S[C@@H]1O[C@H](CO)[C@@H](O)[C@H](O)[C@H]1O (stereo partly shown) [glucoraphanin] | 70 | 70 | – | –
2 | C[S+]([O-])CCCCN=C=S (stereo not shown) [sulforaphane] | – | – | 50 | ~15
